Values of other authors in US8283364B2, “Compounds which have activity at M1 receptor and their uses in medicine” (Glaxo Group Limited, priority 2005, dated 2012).

Columns and labels:
[1] = tested on: dopamine driven behaviours; details: amphetamine induced locomotion in rats, apomorphine induced climbing in mice, turning in 6-OH-DA lesioned rats, amphetamine-induced motor unrest in monkeys
[2] = tested on: A10 and A9 dopamine cell firing; details: A10 versus A9

CCCCCCOc1nsnc1C1=CCCN(C)C1 [xanomeline]
effect on dopamine driven behaviours [1]: reverses a number of dopamine driven behaviours
effect on dopamine cell firing [2]: inhibit A10, but not A9, dopamine cell firing
effect on psychotic symptoms (suspiciousness, hallucinations, delusions) (psychotic symptoms; Alzheimer's patients): reduce psychotic symptoms
side effects (psychotic symptoms; ascribed to relatively non-selective nature of the compound): dose-limiting peripheral cholinergic side effects
